Measurements as given in patent publication US8476265B2, “Compounds-801” (AstraZeneca AB, priority 2010, dated 2013).
pIC50: −log10 of the molar value.

Key:
[1] = biological target: T1, human muscarinic acetylcholine M3 receptor (Homo sapiens, UniProt P20309); experiment: Muscarinic 3 receptor binding assay ([3H]NMS competition, SPA), pIC50; settings: [3H]NMS 0.1 nM, CHO-K1 cell membranes expressing human M3 receptor
T1 construct: expressed in transfected cells; host or cells: CHO-K1 (Chinese Hamster Ovary) cell membranes
T1 sequence (P20309 whole entry): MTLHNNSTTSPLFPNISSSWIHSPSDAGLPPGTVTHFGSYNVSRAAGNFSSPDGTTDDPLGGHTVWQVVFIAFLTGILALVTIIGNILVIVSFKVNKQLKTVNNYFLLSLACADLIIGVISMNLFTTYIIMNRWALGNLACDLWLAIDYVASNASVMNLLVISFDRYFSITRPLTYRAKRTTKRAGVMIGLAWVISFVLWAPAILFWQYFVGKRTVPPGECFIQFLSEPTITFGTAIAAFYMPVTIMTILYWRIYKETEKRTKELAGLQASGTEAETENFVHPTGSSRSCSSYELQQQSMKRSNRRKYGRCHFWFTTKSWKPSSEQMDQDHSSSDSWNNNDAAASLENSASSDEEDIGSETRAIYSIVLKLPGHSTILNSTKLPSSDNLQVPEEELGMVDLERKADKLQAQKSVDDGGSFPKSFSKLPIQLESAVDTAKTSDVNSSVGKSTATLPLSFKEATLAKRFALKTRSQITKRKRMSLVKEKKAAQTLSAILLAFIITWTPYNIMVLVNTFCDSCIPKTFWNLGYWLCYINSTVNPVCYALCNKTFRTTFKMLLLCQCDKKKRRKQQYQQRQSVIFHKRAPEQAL
In short: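 Competition of [3H]NMS (0.1 nM, quarter Kd) binding to CHO-K1 membranes expressing human M3, SPA format, in 20 mM HEPES pH 7.4, 5 mM MgCl2, 0.1% BSA, 1% DMSO. Incubated 16 h at room temperature; non-specific binding with 1 μM atropine; pIC50 from specific binding.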

Adrenergic β2 = biological target: T2, Adrenergic β2 (Homo sapiens, UniProt P07550); experiment: Adrenergic β2 mediated cAMP production in H292 cells (AlphaScreen), concentration response; type: cell-based; settings: for EC50: 60 min, 300 μM rolipram, read-out: β2 pEC50 (converted); for β2 Intrinsic Activity: fraction relative to the maximum activity determined for formoterol
T2 construct: Adherent H292 cells are removed from tissue culture flasks by treatment with Accutase™ cell detachment solution; endogenous in cells; host or cells: H292 cells
T2 sequence (P07550 whole entry): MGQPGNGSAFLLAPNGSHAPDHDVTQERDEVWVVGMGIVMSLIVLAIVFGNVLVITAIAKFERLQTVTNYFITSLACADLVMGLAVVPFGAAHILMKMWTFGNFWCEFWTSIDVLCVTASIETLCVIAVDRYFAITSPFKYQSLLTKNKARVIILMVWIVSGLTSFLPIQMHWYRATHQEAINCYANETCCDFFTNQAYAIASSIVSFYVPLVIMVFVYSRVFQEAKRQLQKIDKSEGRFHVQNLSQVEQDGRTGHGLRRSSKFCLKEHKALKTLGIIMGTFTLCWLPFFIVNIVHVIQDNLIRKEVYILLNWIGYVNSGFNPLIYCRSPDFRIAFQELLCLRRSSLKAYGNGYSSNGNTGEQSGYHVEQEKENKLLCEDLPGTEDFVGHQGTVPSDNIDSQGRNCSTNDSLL
In short: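 H292 cells seeded overnight, pretreated 10 min with rolipram (300 μM final), then exposed to compounds 60 min at room temperature in HBSS/10 mM HEPES pH 7.4/5 mM glucose, 1% DMSO. Lysate cAMP quantified by AlphaScreen against a standard curve; four-parameter fit gives pEC50 and intrinsic activity relative to formoterol maximum.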

| pIC50 [1] | EC50 (Adrenergic β2) [nM] | β2 Intrinsic Activity (Adrenergic β2) | SMILES |
| --- | --- | --- | --- |
| 9.20 | 63.1 | 0.5 | CCCCN(CCCNCCc1ccc(O)c2c1OCC(=O)N2)C(=O)CCOCCc1cccc(CN2CCC3(CC2)CN(C(=O)c2csc(CC)n2)CCO3)c1Cl [Example 80] |
| 8.40 | 251 | 0.9 | O=C1COc2c(CCNCCN(C(=O)CCOCCc3cccc(CN4CCC5(CC4)CN(C(=O)c4cc6ccccc6s4)CCO5)c3)C3CCCCC3)ccc(O)c2N1 [Example 81, 3-(3-((4-(Benzo[b]thiophene-2-carbonyl)-1-oxa-4,9-diazaspiro[5.5]undecan-9-yl)methyl)phenethoxy)-N-cyclohexyl-N-(2-(2-(5-hydroxy-3-oxo-3,4-dihydro-2H-benzo[b][1,4]oxazin-8-yl)ethylamino)ethyl)propanamide] |
| 9.50 | 398 | 0.9 | CCN(CCNCCc1ccc(O)c2[nH]c(=O)sc12)C(=O)CCOCCc1cc(CN2CCC3(CC2)CN(C(=O)c2csc(C)n2)CCO3)ccc1Cl [Example 46, 3-(2-Chloro-5-((4-(2-methylthiazole-4-carbonyl)-4-oxa-4,9-diazaspiro[5.5]undecan-9-yl)methyl)phenethoxy)-N-ethyl-N-(2-(2-(4-hydroxy-2-oxo-2,3-dihydrobenzo[d]thiazol-7-yl)ethylamino)ethyl)propanamide ditrifluoroacetate] |
| 8.90 | 39.8 | 0.9 | CCCN(CCNCCc1ccc(O)c2c1OCC(=O)N2)C(=O)CCOCCc1cccc(CN2CCC3(CC2)CN(C(=O)c2csc(C(C)C)n2)CCO3)c1Cl [Example 29, 3-(2-Chloro-3-((4-(2-isopropylthiazole-4-carbonyl)-1-oxa-4,9-diazaspiro[5.5]undecan-9-yl)methyl)phenethoxy)-N-(2-(2-(5-hydroxy-3-oxo-3,4-dihydro-2H-benzo[b][1,4]oxazin-8-yl)ethylamino)ethyl)-N-propylpropanamide ditrifluoroacetate] |

The remaining lines, values behind:

| SMILES | pIC50 [1] | EC50 (Adrenergic β2) [nM] | β2 Intrinsic Activity (Adrenergic β2) |
| --- | --- | --- | --- |
| CC(C)c1nc(C(=O)N2CCOC3(CCN(Cc4cccc(CCOCCC(=O)N(CCNCCc5ccc(O)c6c5OCC(=O)N6)Cc5ccccc5)c4F)CC3)C2)cs1 [Example 8, N-Benzyl-3-(2-fluoro-3-((4-(2-isopropylthiazole-4-carbonyl)-1-oxa-4,9-diazaspiro[5.5]undecan-9-yl)methyl)phenethoxy)-N-(2-(2-(5-hydroxy-3-oxo-3,4-dihydro-2H-benzo[b][1,4]oxazin-8-yl)ethylamino)ethyl)propanamide ditrifluoroacetate] | 9.60 | 39.8 | 1.1 |
| CC(C)c1nc(C(=O)N2CCOC3(CCN(Cc4cccc(CCCCOCCC(=O)N(CCNCCc5ccc(O)c6c5OCC(=O)N6)C5CCCCC5)c4)CC3)C2)cs1 [Example 58, N-Cyclohexyl-N-(2-(2-(5-hydroxy-3-oxo-3,4-dihydro-2H-benzo[b][1,4]oxazin-8-yl)ethylamino)ethyl)-3-(4-(3-((4-(2-Isopropylthiazole-4-carbonyl)-1-oxa-4,9-diazaspiro[5.5]undecan-9-yl)methyl)phenyl)butoxy)propanamide ditrifluoroacetate] | 10.20 | 100 | 0.9 |
| CCN(CCNCCc1ccc(O)c2[nH]c(=O)sc12)C(=O)CCOCCc1cccc(CN2CCC3(CC2)CN(C(=O)c2csc(C(C)C)n2)CCO3)c1F [Example 10, N-Ethyl-3-(2-fluoro-3-((4-(2-isopropylthiazole-4-carbonyl)-1-oxa-4,9-diazaspiro[5.5]undecan-9-yl)methyl)phenethoxy)-N-(2-(2-(4-hydroxy-2-oxo-2,3-dihydrobenzo[d]thiazol-7-yl)ethylamino)ethyl)propanamide ditrifluoroacetate] | 9.20 | 31.6 | 0.8 |
